Like-named read-outs stand apart in the source and are kept apart here.
Tests used:
[1] = target: T1, full-length beta-Catenin (Uniprot ID P35222) (Homo sapiens, UniProt P35222); assay: Fluorescence polarization IC50 (beta-catenin / 5FAM-TCF4 10-53 competition); assay type: binding; details: read-out: beta-Catenin FP IC50
T1 construct: 10 nM full-length beta-Catenin (Uniprot ID P35222)
T1 sequence (P35222 1-781): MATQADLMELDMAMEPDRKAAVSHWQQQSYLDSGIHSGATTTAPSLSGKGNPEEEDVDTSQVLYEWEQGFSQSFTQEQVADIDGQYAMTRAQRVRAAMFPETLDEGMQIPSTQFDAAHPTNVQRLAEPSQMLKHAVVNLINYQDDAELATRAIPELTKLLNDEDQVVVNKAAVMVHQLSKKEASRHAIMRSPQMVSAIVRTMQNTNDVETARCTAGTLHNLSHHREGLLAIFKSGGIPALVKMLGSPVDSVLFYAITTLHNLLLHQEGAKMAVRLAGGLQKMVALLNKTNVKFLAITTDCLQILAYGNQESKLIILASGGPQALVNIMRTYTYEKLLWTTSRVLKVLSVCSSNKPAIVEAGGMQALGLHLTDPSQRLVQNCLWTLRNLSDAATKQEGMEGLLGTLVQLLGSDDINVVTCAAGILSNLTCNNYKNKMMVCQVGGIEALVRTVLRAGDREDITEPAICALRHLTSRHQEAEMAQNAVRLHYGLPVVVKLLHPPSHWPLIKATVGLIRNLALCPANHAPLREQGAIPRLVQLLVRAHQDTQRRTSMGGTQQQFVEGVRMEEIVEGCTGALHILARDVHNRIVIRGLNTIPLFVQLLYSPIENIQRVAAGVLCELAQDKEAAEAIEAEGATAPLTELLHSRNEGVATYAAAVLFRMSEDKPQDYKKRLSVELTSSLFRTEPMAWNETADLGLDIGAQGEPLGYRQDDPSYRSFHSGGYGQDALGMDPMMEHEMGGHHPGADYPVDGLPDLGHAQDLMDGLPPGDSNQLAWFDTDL

[2] = test system: TCF/LEF luciferase Reporter in DLD1 cells; assay: TCF reporter assay (DLD1 TCF/LEF luciferase reporter, Bright-Glo); assay type: cell-based
Source text: Those skilled in the art will appreciate that other suitable reagents may be utilized and various parameters may be adjusted.
DLD1 reporter cell line was generated by using TCF/LEF luciferase Reporter Lentivirus (BPS Bioscience Catalog #79787). Parental DLD1 cells (ATCC@ CCL-221) were transfected with the lentivirus and followed by 3-day puromycin selection. Single clone was selected for Reporter assay.
On Day 1, cultured cells in flasks that are no more than about 60-70% confluent were washed with PBS and typsinized in 3 mL/T75 until cells were free floating. Spin down cells for 5 minutes at 1100RPM. While cells spin, determine the number of plates (3 compounds per plate) needed. After spinning, aspirate the supernatant gently and add 10 mL media (RPMI+4% FBS), and re-suspend and mix the cells gently. Count the cells twice in the cell counter Countess and take average of both the counts, and determine how many cells are needed. After plating cells at 5000 cells/well, seal with aerseal film. 90 uL cells/well. Incubate at 37° C. overnight, tap gently to mix and don't stack plates.
On Day 2, compounds were added. Stock solution was 10 mM. Make the DMSO containing media by adding 36 uL DMSO to 10 mL of media. Make the dilution wells by transferring 100 uL DMSO+Media into rows B-F of a protein LoBind 96-well plate. Row G is empty. Add any extra DMSO+media to row H. Transfer 4 uL of stock solution to Row A. One compound per column. Add 196 uL media to Row A, no DMSO in the media. Concentration of Row A was 200 uM. Mix well and do a 6 pt, 1:2 serial dilution, mix ×10 per transfer and change tips before each transfer. Removed excess volume from final well (row F) and discard. Transfer 10 uL of the compound containing media to cells with a multichannel according to plate maps. Add 60 uL DMSO containing media to the DMSO wells. The edge wells were typically not used in the assay and could be ignored if needed or replaced with PBS, but there typically were liquids in the wells. Cover plates with breathable plate sealer and incubate overnight.
A 96-well plate may be utilized to prepare dilution series for up to 12 compounds, each with several concentrations (e.g., 200, 100, 50, 25, 12.5, 6.25 and 0 uM; can be utilized as 100× depending on final test concentrations).
0 uM is the DMSO control for the whole plate. Edge well filled with 90 uL cells+10 uL DMSO containing media.
On Day 3, luciferase levels were assessed using Bright-Glo (Promega). Equilibrate Bright-Glo to room temperature before addition. 7 mL of mixed Bright-Gbo per plate. Unused Bright-Glo could be store at −80° C. Reconstituted reagent can be stored for up to 1 month at −80° C., or after one freeze-thaw. When ready to read, remove plates from incubator and let sit at room temperature for 15 minutes. Typically stagger taking out plates if reading multiple plates before adding the Bright-Glo. Add 90 uL/well Bright-Glo and shake gently for 3 minutes. Read luminescence on GloMax immediately using ‘BrightGlo’ programs.
Cellular activity was assessed using CTG. Equilibrate CTG reagents to room temperature. Equilibrate plates to room temp, e.g. 15 min. Use same time length for all plates. Add CTG reagent, 25 uL if using undiluted, or 90 uL if diluted 1 to 4. Shake for 2 min to induce cell lysis. Allow plate to incubate at RT for 10 min to stabilize lumine sent signal. Read luminesence using program ‘CellTiter-Glo’. Use Prism to find the Absolute IC50 (AbsIC50=X[50]) of each compound.

[3] = target: T2, beta-catenin/TCF4 engagement (Homo sapiens, UniProt P35222); assay: Nano-BRET target engagement assay (B-cat-Halo & TCF4-Luc in HEK293 cells); assay type: cell-based; details: read-out: NanoBRET Abs IC50
T2 construct: expressed in transfected cells; host or cells: HEK293
T2 sequence (P35222 1-781): T1 sequence (P35222 1-781)

[4] = absolute IC50, read-out: DLD1 reporter assay Abs IC50
[5] = read-out: DLD1 4% Abs IC50, DLD1 reporter, 4%, absolute IC50

CC(=O)N1CCC[C@]12CC=CCCCC1(CCCC=CCCCOC(=O)N3CC[C@@](C(=O)N[C@@H](Cc4ccsc4)C(=O)N[C@@H](Cc4csc5ccccc45)C(=O)N[C@@H](CCC(N)=O)C(=O)O)(C3)NC(=O)[C@H](CC(N)=O)NC(=O)[C@H](Cc3ccccc3)NC(=O)[C@H](C)NC(=O)[C@H](C)NC(=O)[C@H](CN(CC(=O)O)CC(F)(F)F)NC(=O)[C@H](CC(=O)O)NC1=O)NC(=O)[C@H](CC(C)(C)C)NC(=O)[C@H](CC(=O)O)NC2=O (stereo partly drawn) [I-1026, Ac-PL3-Asp-Npg-B5-Asp-TfeGA-Ala-Ala-Phe-Asn-PyrS2-3Thi-BztA-Gln-OH]
IC50 [1]: 5 nM
IC50 [2, 4]: > 20 µM
IC50 ([3]; absolute IC50): 16.7 µM

CCNC(=O)[C@H](CO)NC(=O)[C@H](Cc1csc2ccccc12)NC(=O)[C@H](Cc1ccccc1Cl)NC(=O)[C@]12CCN(C1)C(=O)OCCCC=CCCCC1(CCCC=CC[C@]3(CCCN3C(C)=O)C(=O)N[C@@H](CC(=O)O)C(=O)N[C@@H](CC(C)(C)C)C(=O)N1)C(=O)N[C@@H](CC(=O)O)C(=O)N[C@@H](CC(=O)O)C(=O)N[C@@H](C)C(=O)N[C@@H](C)C(=O)N[C@@H](Cc1ccccc1)C(=O)N[C@@H]([C@@H](C)O)C(=O)N2 (stereo partly drawn) [I-1244, Ac-PL3-Asp-Npg-B5-Asp-Asp-Ala-Ala-Phe-Thr-PyrS2-2C1F-BztA-Ser-NHEt]
IC50 ([1]; fluorescence polarization): 18 nM
IC50 [2, 4]: 13.9 µM
IC50 [2, 5]: 15.9 µM
IC50 ([3]; absolute IC50): 17.7 µM

CC(=O)N1CCC[C@]12CC=CCCCC1(CCCC=CCCCOC(=O)N3CC[C@@](C(=O)N[C@@H](Cc4ccccc4C(F)(F)F)C(=O)N[C@@H](Cc4csc5ccccc45)C(=O)N[C@@H](CC(=O)N4CCN(C)CC4)C(N)=O)(C3)NC(=O)[C@H](CC(C)C)NC(=O)[C@H](Cc3ccccc3)NC(=O)[C@H](C)NC(=O)[C@H](C)NC(=O)[C@H](Cc3cccc(C(=O)O)c3)NC(=O)[C@H](CC(=O)O)NC1=O)NC(=O)[C@H](CC(C)(C)C)NC(=O)[C@H](CC(=O)O)NC2=O (stereo partly drawn) [I-1612, Ac-PL3-Asp-Npg-B5-Asp-3COOHF-Ala-Ala-Phe-Leu-PyrS2-2F3MeF-BztA-MePpzAsn-NH2]
IC50 ([1]; fluorescence polarization): 10 nM
IC50 ([2]; read-out: DLD1 4% Abs IC50, DLD1 reporter assay, 4%, absolute IC50): 4 µM
IC50 ([3]; absolute IC50): 5.3 µM

CC(=O)N1CCC[C@]12CC=CCCCC1(CCCC=CCCCOC(=O)N3CC[C@@](C(=O)N[C@@H](Cc4ccsc4)C(=O)N[C@@H](Cc4csc5ccccc45)C(=O)N[C@@H](CCC(N)=O)C(N)=O)(C3)NC(=O)[C@H](CC(C)C)NC(=O)[C@H](Cc3ccccc3)NC(=O)[C@H](C)NC(=O)[C@H](C)NC(=O)[C@H](Cn3cc(C4(C(=O)O)CC4)nn3)NC(=O)[C@H](CC(=O)O)NC1=O)NC(=O)[C@H](CC(C)(C)C)NC(=O)[C@H](CC(=O)O)NC2=O (stereo partly drawn) [I-2445, Ac-PL3-Asp-Npg-B5-Asp-[CCpCO2H]TriAzDap-Ala-Ala-Phe-Leu-PyrS2-3Thi-BztA-Gln-NH2]
IC50 ([1]; fluorescence polarization): 5 nM
IC50 [2, 5]: 9.5 µM
IC50 ([3]; absolute IC50): 17.1 µM

CC(=O)N1CCC[C@]12CC=CCCCC1(CCCC=CCCCOC(=O)N3CC[C@@](C(=O)N[C@@H](Cc4ccccc4)C(=O)N[C@@H](Cc4csc5ccccc45)C(=O)N[C@@H](CC(=O)N4CCOCC4)C(N)=O)(C3)NC(=O)[C@H](CC(C)C)NC(=O)[C@H](Cc3ccccc3)NC(=O)[C@H](C)NC(=O)[C@H](CCCCNC(C)C)NC(=O)[C@H](CCC(N)=O)NC(=O)[C@H](CC(=O)O)NC1=O)NC(=O)[C@H](CC1CCCCC1)NC(=O)[C@H](CC(N)=O)NC2=O (stereo partly drawn) [I-2426, Ac-PL3-Asn-Cha-B5-Asp-Gln-iPrLys-Ala-Phe-Leu-PyrS2-Phe-BztA-MorphAsn-NH2]
IC50 ([1]; fluorescence polarization): 46 nM
IC50 [2, 5]: > 20 µM
IC50 ([3]; absolute IC50): > 20 µM

CC(=O)N1CCC[C@]12CC=CCCCC1(CCCC=CCCCOC(=O)N3CC[C@@](C(=O)N[C@@H](Cc4ccccc4C(F)(F)F)C(=O)N[C@@H](Cc4csc5ccccc45)C(=O)N[C@@H](CCC(N)=O)C(=O)N[C@@H](CC(C)C)C(=O)N[C@@H](CCCNC(=N)N)C(N)=O)(C3)NC(=O)[C@H](CC(C)C)NC(=O)[C@H](Cc3ccccc3)NC(=O)[C@H](C)NC(=O)[C@H](C)NC(=O)[C@H](Cc3cccc(C(=O)O)c3)NC(=O)[C@H](CC(=O)O)NC1=O)NC(=O)[C@H](CC(C)(C)C)NC(=O)[C@H](CC(=O)O)NC2=O (stereo partly drawn) [I-2393, Ac-PL3-Asp-Npg-B5-Asp-3COOHF-Ala-Ala-Phe-Leu-PyrS2-2F3MeF-BztA-Gln-Leu-Arg-NH2]
IC50 ([1]; fluorescence polarization): 61 nM
IC50 [2, 5]: 5.6 µM
IC50 ([3]; absolute IC50): > 20 µM

CC(=O)N1CCC[C@]12CC=CCCCC1(CCCC=CCCCOC(=O)N3CC[C@@](C(=O)N[C@@H](Cc4ccsc4)C(=O)N[C@@H](Cc4csc5ccccc45)C(=O)N[C@@H](CCC(N)=O)C(N)=O)(C3)NC(=O)[C@H](CC(C)C)NC(=O)[C@H](Cc3ccccc3)NC(=O)[C@H](C)NC(=O)[C@H](C)NC(=O)[C@H](Cn3cc(CC(=O)O)nn3)NC(=O)[C@H](CC(=O)O)NC1=O)NC(=O)[C@H](CC(C)(C)C)NC(=O)[C@H](CC(=O)O)NC2=O (stereo partly drawn) [I-2084, Ac-PL3-Asp-Npg-B5-Asp-[CH2CO2H]TriAzDap-Ala-Ala-Phe-Leu-PyrS2-3Thi-BztA-Gln-NH2]
IC50 ([1]; fluorescence polarization): 5 nM
IC50 ([2]; read-out: DLD1 4% Abs IC50, DLD1 4%): 9.7 µM
IC50 [3]: 9.2 µM

CC(=O)N1CCC[C@]12CC=CCCCC1(CCCC=CCCCOC(=O)N3CC[C@@](C(=O)N[C@@H](Cc4ccccc4C(F)(F)F)C(=O)N[C@@H](Cc4csc5ccccc45)C(=O)N[C@@H](CCC(N)=O)C(=O)N[C@H](C(=O)N[C@@H](C)C(N)=O)C(C)C)(C3)NC(=O)[C@H](CC(C)C)NC(=O)[C@H](Cc3ccccc3)NC(=O)[C@H](C)NC(=O)[C@H](C)NC(=O)[C@H](Cc3cccc(C(=O)O)c3)NC(=O)[C@H](CC(=O)O)NC1=O)NC(=O)[C@H](CC(C)(C)C)NC(=O)[C@H](CC(=O)O)NC2=O (stereo partly drawn) [I-2401, Ac-PL3-Asp-Npg-B5-Asp-3COOHF-Ala-Ala-Phe-Leu-PyrS2-2F3MeF-BztA-Gln-Val-Ala-NH2]
IC50 ([1]; fluorescence polarization): 37 nM
IC50 [2, 5]: 0.8 µM
IC50 ([3]; absolute IC50): 4.4 µM
